The text below walks through data of patent US20250177419A1, “PHARMACEUTICAL COMPOSITION COMPRISING NICLOSAMIDE OR PHARMACEUTICALLY ACCEPTABLE SALT THEREOF AND PREPARATION METHOD THEREFOR” (WEBIOTREE CO., LTD, priority 2022, published 2025).

Experiment [1] has as its system Beta and Omicron variants of SARS-CoV-2. Nature of the experiment: Antiviral efficacy test in Vero E6 cells, qRT-PCR viral genome copy. In kind it is cell-based.
Experiment [2] relates to SARS-CoV-2 Omicron (B11529). In words: Antiviral efficacy test in Vero E6 cells, qRT-PCR viral genome copy, Omicron. In kind it is cell-based. On the technique in general: In qPCR the cycle at which signal appears reflects the starting amount.

With `O=C(Nc1ccc([N+](=O)[O-])cc1Cl)c1cc(Cl)ccc1O` [niclosamide], the “effectiveness in inhibiting viral proliferation compared to remdesivir” value in experiment [1] is “over 1.7 times”. The “antiviral efficacy against the Omicron variant compared to the Beta variant” value in experiment [2] was “more than four times higher antiviral efficacy”.
